From patent US20200079757A1, “COMPOUNDS FOR THE TREATMENT OF RESPIRATORY DISEASES” (THE UNIVERSITY OF MELBOURNE, priority 2017, published 2020)
Read-outs that look alike come from different tables or passages of the source.

Experiments:
TGFβ-activated A549 = TGFβ-activated A549 gene expression (modulation of mRNA level, RT-qPCR); assay type: cell-based; settings: for IC50: Homo sapiens, A549, agent 0.1-10 μM before TGF-β (100 pM) 24 hr
Method: The selected potential candidate was also assayed in A549 alveolar epithelial cells, a commonly-used cell model for epithelial-mesenchymal transition (EMT) investigation. The agents were added at the indicated concentrations 30 min prior to the addition of TGF-β which was incubated for a further 24 hours. Then, the cellular RNA was harvested to measure the regulation of the EMT-associated genes and fibrogenic genes.
A549 alveolar epithelial cells (ATCC, Manasas, Va., USA) were cultured in DMEM containing 5% (v/v) FCS, 15 mM HEPES, 0.2% (v/v) sodium bicarbonate, 2 mM L-glutamine, 1% (v/v) non-essential amino acids, 1% (v/v) sodium pyruvate, 5 IU/mL penicillin and 50 μg/mL streptomycin as previously described (S. Salem, T. Harris, J. Mok Shiueh Lian, M. Yuen Sin Li, C. R. Keenan, M. J. Schuliga, and A. G. Stewart (2012). Transforming growth factor-p impairs glucocorticoid activity in the A549 lung adenocarcinoma cell line. Br J Pharmacol. 166: 2036-2048).
(§1) Prior to experimentation, BEAS-2B and A549 cells were incubated in serum-free DMEM containing 0.25% bovine serum albumin (BSA) and insulin-transferrin-selenium—containing supplement (Monomed A; CSL, Parkville, Melbourne, Australia). Where indicated, cells were treated with one of the series of synthesised compounds (0.3-10 μM) prior to exposure to 100 pM TGF-β1 (R&D Systems, Minneapolis, Minn.) or 300 pM bFGF (Promega, Madison, Wis.).
(§2) Total RNA was extracted from cultured cells using illustra RNAspin Mini RNA Isolation Kit (GE Healthcare). RNA extracts were reverse-transcribed into cDNA using High-Capacity RNA-to-cDNA Kit (Applied Biosystems). Real-time PCR was then performed using a QuantStudio 6 Flex Real-Time PCR System using iTaq Universal SYBR green supermix and the following thermal protocol: 50° C. (2 min), 95° C. (10 min), then 40 cycles of 95° C. (15 sec), 60° C. (1 min). The threshold cycle (CT) values determined for target genes were normalized against those obtained for 18S ribosomal RNA (18S rRNA), which was included as internal control. The generation of specific PCR products was confirmed by dissociation curve analysis.
EMT is a feature of the pathogenesis of fibrosis that is relevant to epithelial tumour metastases and fibrogenesis in organs such as heart, kidney liver and lung, and is known to contribute to idiopathic pulmonary fibrosis (IPF) as well as being thought to make a contribution to the fibrosis known to occur in asthma and COPD. […] The potencies of PF670462 and SS9-010 in modulating induction of CTGF are not statistically distinguishable. […] The potency of these two agents in regulating vimentin induction by TGF-β could not be assessed, as the concentration-response relationship for PF670462 could not be fitted. However, the effects of SS9-010 were significant at 3 μM, whereas PF670462 (3 μM) had no effect.

[1] = tested on: Col 1A gene expression in BEAS-2B cells; test: TNFα and TGFβ induced Col 1A gene expression in BEAS-2B cells (RT-qPCR); assay type: cell-based
Method: The primary assay for the activity of the novel CK1δ/ε inhibitors is the modulation of gene expression in the airway epithelial cell line, the BEAS-2B cells. The assay is conducted under several conditions. Generally, TGF-β or TNF-α is used to elicit fibrogenic or inflammatory genes, respectively. The agents are added at a concentration of 10 μM, or at the indicated concentrations for a period of 30 min prior to the addition of TGF-β/TNF-α which are incubated for a further 20 hours before the addition, in some experiments of the glucocorticoid, dexamethasone (Dex, 30 nM) for the final 4 hours of the experiment, prior to harvest of cellular RNA to measure by RT-qPCR the levels of mRNA of marker genes for inflammation and fibrogenesis. The inhaled corticosteroid (ICS), budesonide is also used in some experiments. Furthermore, the supernatants are harvested at the end of the incubation periods in selected experiments to measure the levels of CSF-2 or IL-8 by ELISA as described in (Tran et al. (2005) British Journal of Pharmacology, 145, 123-131).
as §1, §2

liver gene expression = test: Liver fibrogenic gene expression after oral (gavage) dosing in bleomycin-treated mice; assay type: in vivo, mouse; settings: female C57BL6 mice, 30 mg/kg po once daily day −1 to 3, 3 days after transnasal bleomycin
Method: FIG. 11. The effects of oral (gavage) PF670462 or […] were investigated in female C57BL6 mice, with a focus on liver gene expression. […] Data are presented as mean±SEM (n=4). In studies to ascertain the effect of oral administration of either PF670462 or SS8-058 we harvested the liver on day 3 from mice that had been treated transnasally with bleomycin on day 0 to measure gene expression of products that are implicated in fibrogenesis. Mice were treated once daily by gavage from day −1 to day 3 with either PF670462 or SS8-058 (30 mg/kg, po).

[2] = read-out: -Log IC50 ± SEM (modulation of mRNA level), CTGF induction (converted)
[3] = read-out: -Log IC50 ± SEM (modulation of mRNA level), Col 1A induction (converted)
[4] = read-out: -Log IC50 ± SEM (modulation of mRNA level), E-Cadherin repression (converted)
[5] = read-out: -Log IC50 ± SEM (modulation of mRNA level), PAI-1 induction (converted)

Cl.Nc1nccc(-c2c(-c3ccc(F)cc3)ncn2C2CCCCC2)n1 [PF670462, 4-(1-Cyclohexyl-4-(4-fluorophenyl)-1H-imidazol-5-yl)pyrimidin-2-amine hydrochloride, reference compound]
effect on vimentin induction by TGF-β (TGFβ-activated A549; A549, agent 3 μM): no effect
IC50 (TGFβ-activated A549; [2]): 1450 nM
IC50 (TGFβ-activated A549; [3]): 3800 nM
IC50 (TGFβ-activated A549; [4]): 8320 nM
IC50 (TGFβ-activated A549; [5]): 3890 nM
Col1A mRNA level, TGF-β ([1]; agent 3 μM): 1.91 ± 0.32 fold control
Col1A mRNA level, TNF-α (n = 2) ([1]; agent 3 μM): 0.52 fold control
Col1A mRNA level, vehicle (no stimulus) ([1]; agent 3 μM): 0.47 ± .04 fold control
Col1A mRNA level, TGF-β ([1]; agent 10 μM): 1.53 ± 0.33 fold control
Col1A mRNA level, TNF-α (n = 2) ([1]; agent 10 μM): 0.65 fold control
Col1A mRNA level, vehicle (no stimulus) ([1]; agent 10 μM): 0.65 ± 0.02 fold control
liver baseline mRNA level of PAI-1 (liver gene expression): significant reductions
liver baseline mRNA level of TMP1 (liver gene expression): significant reductions

CCCCCCCCN1CCC(n2cnc(-c3ccc(F)cc3)c2-c2ccnc(N)n2)CC1 [SS8-058, 4-(4-(4-Fluorophenyl)-1-[1-octylpiperidin-4-yl]-1H-imidazol-5-yl)pyrimidin-2-amine]
Col1A mRNA level, TGF-β ([1]; agent 10 μM): 9.68 ± 1.25 fold control
Col1A mRNA level, TNF-α (n = 2) ([1]; agent 10 μM): 1.11 fold control
Col1A mRNA level, vehicle (no stimulus) ([1]; agent 10 μM): 0.91 ± 0.19 fold control
liver baseline mRNA level of PAI-1 (liver gene expression): significant reductions
liver baseline mRNA level of TMP1 (liver gene expression): significant reductions

CNc1nccc(-c2c(-c3ccc(F)cc3)ncn2C2CCCCC2)n1 [SS9-010, 4-(1-Cyclohexyl-4-(4-fluorophenyl)-1H-imidazol-5-yl)-N-methylpyrimidin-2-amine]
IC50 (TGFβ-activated A549; [2]): 447 nM
IC50 (TGFβ-activated A549; [3]): 447 nM
IC50 (TGFβ-activated A549; [4]): 2140 nM
IC50 (TGFβ-activated A549; [5]): 661 nM
IC50 (TGFβ-activated A549; read-out: -Log IC50 ± SEM (modulation of mRNA level), Vimentin induction (converted)): 3890 nM
Col1A mRNA level, TGF-β ([1]; agent 10 μM): 1.09 ± 0.10 fold control
Col1A mRNA level, TNF-α (n = 2) ([1]; agent 10 μM): 0.37 fold control
Col1A mRNA level, vehicle (no stimulus) ([1]; agent 10 μM): 0.30 ± 0.02 fold control
